Measured values as given in paper PMC9965906, “Discovery and Development Strategies for SARS-CoV-2 NSP3 Macrodomain Inhibitors” (Pathogens, 2023).
Several values for one entry are separate records, joined by “and”; a condition that tells them apart may be missing. Equal entries are not always repeated.

Target: SARS-CoV-2 NSP3 Mac1 (Severe acute respiratory syndrome coronavirus 2, UniProt P0DTD1)
Test: biochemical
Type: binding
Conditions: for inhibition at 125 µM / IC50 in µM / Inhibition at top concentration of 125 µM (%) / IC50: MIDAS hit compounds and analogues; for inhibition at 125 µM: read-out: Inhibition at top concentration of 125 µM (%); for IC50 in µM / IC50: 8-point 1:1 dilution; for IC50: read-out: IC50; for NSP3 Mac1 inhibition at 50 µM (%) / inhibition at 50 µM: FDA-approved compound library primary screen, single shot; for assay effects in dose-response titration: MIDAS hits and analogues, higher compound concentrations; for inhibitory activity in FDA-approved library screen: primary screen at the set screening concentration
[1] = top concentration 125 µM, duplicate
[2] = MIDAS compound library primary screen

SMILES: CCn1ncc2c(C(=O)NC(C)c3ccncc3)cc(-c3cccs3)nc21 (stereo not shown) [IAL-MD0120, CCN1N=CC=2C(=CC(=NC12)C3=CC=CS3)C(=O)NC(C)C=4C=CN=CC4]
- inhibition at 125 µM: 8.9%
- IC50 in µM [1]: Not measurable

SMILES: CN1CCC(Cn2ccnc2-c2ccc(-c3ccccc3C#N)o2)C1 (stereo not shown) [IAL-MD0129, N#CC1=CC=CC=C1C2=CC=C(C3=NC=CN3CC4CN(C)CC4)O2]
- inhibition at 25 µM [2]: 55%
- Inhibition at top concentration of 125 µM (%): Not measurable due to compound precipitation
- IC50 [1]: 14.2 µM

SMILES: O=c1c2ccccc2[se]n1-c1ccccc1 [Ebselen, reference compound]
- NSP3 Mac1 inhibition at 50 µM (%): 107%
- inhibition at 50 µM: 108%
- Hill slope (FDA-approved hit compounds, confirmatory HTRF assays): 4.94

SMILES: O=C(O)c1cc(-c2ccc(OC(F)F)cc2)nc2ccccc12 [IAL-MD0089, OC(=O)C=1C=C(N=C2C=CC=CC12)C=3C=CC(OC(F)F)=CC3]
- inhibition at 125 µM: 5.7%
- IC50 in µM [1]: Not measurable

SMILES: CCn1ncc2c(C(=O)N3CCCC3c3ccc(OC)cc3)cc(-c3cccs3)nc21 (stereo not shown) [IAL-MD0066, CCN1N=CC=2C(=CC(=NC12)C3=CC=CS3)C(=O)N4CCCC4C=5C=CC(OC)=CC5]
- inhibition at 125 µM: 13.5%
- IC50 in µM [1]: Not measurable

SMILES: Cc1cc2nn(-c3ccccc3)nc2cc1N [BCC0086077, Cc1cc2nn(-c3ccccc3)nc2cc1N]
- inhibition at 25 µM (BioAscent virtual screening hit compounds, duplicate): 67.8%

SMILES: N.N.O=C([O-])C1(C(=O)[O-])CCC1.[Pt+2] [Carboplatin, reference compound]
- NSP3 Mac1 inhibition at 50 µM (%): 97.3%
- outcome of dose-response titration (FDA-approved hit compounds, top concentration 125 µM): strong assay interference

SMILES: O=C(Nc1ccc2cc[nH]c2c1)c1csc(NCC2CCCO2)n1 (stereo not shown) [ARUK4000671-001-001, O=C(Nc1ccc2cc[nH]c2c1)c1csc(n1)NCC1CCCO1]
- inhibition at 25 µM [2]: 106%

SMILES: Cc1ccc(-c2cc(C(=O)N3CCOCC3)c3cnn(C(C)C)c3n2)s1 [IAL-MD0051, CC(C)N1N=CC=2C(=CC(=NC12)C3=CC=C(C)S3)C(=O)N4CCOCC4]
- inhibition at 125 µM: 59.8%
- IC50 [1]: 12.6 µM
- assay effects in dose-response titration: secondary assay effects at higher concentrations

SMILES: CC(=O)Nc1cccc(NC(=O)c2cc(-c3cccs3)nc3c2cnn3C(C)C)c1 [IAL-MD0032, CC(C)N1N=CC=2C(=CC(=NC12)C3=CC=CS3)C(=O)NC=4C=CC=C(NC(=O)C)C4]
- inhibition at 125 µM: 20.3%
- IC50 in µM [1]: Not measurable

SMILES: CN(C)C1CCN(C(=O)c2ccc(-c3ncnc4[nH]ccc34)cc2)C1 (stereo not shown) [IAL-MD0141, O=C(N1CC(N(C)C)CC1)C2=CC=C(C3=C4C(NC=C4)=NC=N3)C=C2.O=CO]
- inhibition at 125 µM: 81.3%
- IC50 [1]: 25.2 µM

SMILES: N[C@@H](C(=O)N[C@@H]1C(=O)N2C(C(=O)O)=C(Cl)CS[C@H]12)c1ccccc1 [cefaclor, reference compound]
- inhibitory activity in FDA-approved library screen: could yet not measure any inhibitory activity

SMILES: Cn1ccc2c(-c3ccc(C(=O)N4CCCCC4)cn3)ccnc21 [IAL-MD0128, O=C(C1=CN=C(C2=C3C(N(C)C=C3)=NC=C2)C=C1)N4CCCCC4]
- inhibition at 25 µM [2]: 58%
- Inhibition at top concentration of 125 µM (%): Not measurable due to compound precipitation
- IC50 [1]: ~3.1 µM and 3.1 µM
- assay effects in dose-response titration: assay interference effects at higher compound concentrations

SMILES: NC(=O)c1ccc[n+]([C@@H]2O[C@H](COP(=O)([O-])OP(=O)(O)OC[C@H]3O[C@@H](n4cnc5c(N)ncnc54)[C@H](O)[C@@H]3O)[C@@H](O)[C@H]2O)c1 [Nadide, reference compound]
- NSP3 Mac1 inhibition at 50 µM (%): 100%
- inhibition at 50 µM: 99.9%

SMILES: CCn1ncc2c(C(=O)Nc3ccc(C(N)=O)cc3)cc(-c3cccs3)nc21 [IAL-MD0097, CCN1N=CC=2C(=CC(=NC12)C3=CC=CS3)C(=O)NC=4C=CC(=CC4)C(=O)N]
- inhibition at 125 µM: 7.7%
- IC50 in µM [1]: Not measurable

SMILES: CCn1ncc2c(C(=O)N3CCNC(=O)C3)cc(-c3cccs3)nc21 [IAL-MD0040, CCN1N=CC=2C(=CC(=NC12)C3=CC=CS3)C(=O)N4CCNC(=O)C4]
- inhibition at 25 µM [2]: 51%
- inhibition at 125 µM: 81%
- IC50 [1]: 21 µM and 20.6 µM

SMILES: CC(C)n1ncc2c(C(=O)N3CCNC(=O)C3)cc(-c3ccccc3)nc21 [IAL-MD0123, CC(C)N1N=CC=2C(=CC(=NC12)C=3C=CC=CC3)C(=O)N4CCNC(=O)C4]
- inhibition at 125 µM: 1.8%
- IC50 in µM [1]: Not measurable

SMILES: COc1ccc(-c2cc(C(=O)Nc3cccc(S(=O)(=O)N(C)C)c3)c3ccccc3n2)cc1 [IAL-MD0101, COC=1C=CC(=CC1)C=2C=C(C(=O)NC=3C=CC=C(C3)S(=O)(=O)N(C)C)C=4C=CC=CC4N2]
- inhibition at 125 µM: 25.2%
- IC50 in µM [1]: Not measurable

SMILES: Cc1ccc(C(=O)Nc2ccc(S(=O)(=O)O)c3cc(S(=O)(=O)O)cc(S(=O)(=O)O)c23)cc1NC(=O)c1cccc(NC(=O)Nc2cccc(C(=O)Nc3cc(C(=O)Nc4ccc(S(=O)(=O)O)c5cc(S(=O)(=O)O)cc(S(=O)(=O)O)c45)ccc3C)c2)c1 [Suramin hexasodium, reference compound]
- inhibition at 50 µM: 55.8%
- inhibitory activity in FDA-approved library screen: confirm the inhibitory activity

SMILES: Cc1ccc(Cn2ncc3c(C(=O)N4CCNC(=O)C4)cc(C)nc32)cc1 [IAL-MD0124, CC=1C=CC(CN2N=CC=3C(=CC(C)=NC23)C(=O)N4CCNC(=O)C4)=CC1]
- Inhibition at top concentration of 125 µM (%): Not measurable
- IC50 in µM [1]: Not measurable
